From patent US8703424B2, “Predicting human developmental toxicity of pharmaceuticals using human stem-like cells and metabolomics” (Stemina Biomarker Discovery, Inc., priority 2010, dated 2014)
Like-named read-outs stand apart in the source and are kept apart here.

Assays:
[1] = tested on: WA09 hESCs; assay: Random forest prediction of teratogenicity from metabolomics of spent media of dosed hESCs; format: cell-based, human; conditions: for Predicted teratogenicity (random forest statistical model): blind study, model trained on TS1, 142 mass features, circulating dose
Experimental: WA09 hESCs, obtained from WiCell Research Institute (NIH National Stem Cell Bank, Madison, Wis.) were cultured in 6-well plates on Matrigel (BD Biosciences, San Jose, Calif.), in mTeSR1 medium (Stem Cell Technologies, Vancouver, BC) incubated at 37° C. under 5% CO2 in a Thermo Electron Form a Series II Water Jacket CO2 Incubator. hESCs were passaged every three or four days at a 1:3 or 1:6 seeding density for routine culture conditions. For dosing experiments, hESCs were passaged at a low density of 1:10 or 1:12 so that they would not require passaging during the […] dosing protocol. To passage hES cells, the StemPro® EZPassage™ disposable stem cell passaging tool (Invitrogen, Carlsbad, Calif.) was used to detach the cells from the wells. Detached cells were removed with a pipette and distributed to new Matrigel plates.
(§1) These medium controls provided baseline mass spectral data.
(§2) The 2.5 mL of spent media per well from Example 1 was added to 1.67 mL acetonitrile to make a 40% acetonitrile solution. The acetonitrile acts to “quench” the spent media sample, slowing or halting many metabolic processes and aiding in precipitation of cellular proteins. Samples were either stored at −80° C. for later analysis, or for immediate analysis, 250 μL of the quenched solution was mixed with 250 μL of water, to a final concentration of 20% acetonitrile, then added to a 3 kDa molecular weight cut-off filter spin column (Microcon YM-3 Centrifugal Filter, Millipore, Billerica, Mass.). Each sample was then centrifuged in an IEC CL31R Multispeed Centrifuge (Thermo Scientific, Waltham, Mass.) at 13,000×g at 4° C. for 200 minutes. Following centrifugation, the flow-through was saved then dried for several hours in a Savant High Capacity Speedvac Plus Concentrator. The concentrated sample was then dissolved in 50 μL of 0.1% formic acid prior to LC-MS analysis.
(§3) 5 μl of each sample was injected.
(§4) Following LC-MS, chromatograms were inspected for reproducibility. LC-MS runs with total ion counts that vary by more than 25% were repeated to ensure that samples could be accurately compared. These runs were then used to create mass features that correspond to molecules detected across the different LC-MS runs. Mass features were extracted from the LC-MS data using MassHunter Qualitative Analysis software (Agilent Technologies). The following criteria were used as general guidelines, however some flexibility and optimization was needed. m/z values within the range of 75-1500, with a charge of +1 or −1, and a centroid height greater than 1000 were used to generate “mass features.” The mass peaks that pass these criteria were used to fit isotope and adduct (Na^+, K^+, and NH4^+) patterns corresponding to individual molecules, and to establish the abundance of each mass feature. The abundance is calculated by MassHunter software as the sum of the isotopic and adduct peaks that correspond to a single molecular feature. After data deconvolution, mass features showing at least two ions (e.g. (M^+H)^+ and (M^+H)^++1 or (M^+H)^+ and (M^+Na)^+) and an abundance value greater than 50000 for positive-ion mode data and 10000 in negative-ion mode data were included in the data set used for binning of the mass features.
Following feature selection by MassHunter, the data was further preprocessed by MassProfiler (Agilent) software which aligns mass features across multiple LC-MS data files. Mass features were generated for data from each drug treatment experiment (dosed and control) using the default alignment settings in MassProfiler with the requirement that a feature be present in at least 80% of the samples in one treatment. The mass feature datasets for each drug treatment experiment were further processed in a global manner using custom analysis scripts executed in the R statistical software environment. […]

[2] = tested on: WA09 human embryonic stem (hES) cells; assay: PLS-DA prediction of teratogenicity from secretome of treated hES cells (Example 9); conditions: DevTox pharmaceutical
Excerpt: (§5) These included 11 known teratogens and 11 known non-teratogens. The current model is based on the mean fold change (treatment versus its associated intra-experimental control) of 15 metabolites common among the secretome of hES cells treated with pharmaceutical agents and unknown chemical compounds.

[3] = tested on: hESCs; assay: Arginine / ADMA fold change ratio (integrated EICs) in dosed hESCs vs controls; conditions: for Arg fold change/ADMA fold change: EIC areas, controls vs. dosed
Experimental: All tested chemicals were purchased from Sigma-Aldrich (St. Louis, Mo.). Cells were dosed with drugs at a concentration equivalent to their published serum circulating therapeutic dosages. Dosing was performed on hESCs in 6-well plates in triplicate, i.e. three wells per plate. The plates were dosed in triplicate, so there were a total of nine dosed wells. In parallel, there were nine “control” wells, in which hESCs were cultured with mTeSR1 containing no drug, and three wells containing Matrigel with mTeSR1 medium without hESCs that served as medium controls. Lastly, three wells of dosed medium controls were prepared, containing Matrigel, mTeSR1 and drug, but no hESCs (FIG. 1). These medium controls provided baseline mass spectral data. On the first day of dosage, the determined concentration of drug was dissolved in mTeSR1, and then 2.5 mL of this solution was added to each dosed well of hESCs. Each day, for four days, the medium was removed and new dosed medium was added. On the fourth day, the medium was removed and added to acetonitrile to make a 40% acetonitrile solution, as outlined in the Sample Preparation section below.
Mass spectrometry was performed using an Agilent QTOF LC/MS system consisting of a G6520AA QTOF high resolution mass spectrometer capable of exact mass MS and MS/MS. In order to facilitate separation of small molecules with a wide range of polarity and to allow increased retention of hydrophilic species, Hydrophilic Interaction Liquid Chromatography (Alpert 1990) was employed. Each sample was run for 30 minutes with the gradient shown in Table 3 at a flow rate of 0.5 mL/min, using 0.1% formic acid in water (Solvent A) and 0.1% formic acid in acetonitrile (Solvent B). Electrospray ionization was employed using a dual ESI source, with an Agilent isocratic pump continuously delivering an internal mass reference solution into the source at approx. 0.01 mL/min. The mass range of the instrument was set to 100-1700 Da. A Phenomenex Luna HILIC column with dimensions 3×100 mm 3 μm particle size was used and maintained at 30° C. 5 μl of each sample was injected. Data acquisition was performed with Agilent MassHunter using high-resolution exact mass conditions.
Valproate is known to cause neural tube defects (DiLiberti et al. 1984) while nitric oxide synthase activity is essential for neural tube closure (Nachmany et al. 2006).

[4] = tested on: WA09 hESCs; assay: LC-MS metabolomics: abundance changes of metabolites in hESCs dosed at circulating dose; format: cell-based, human; conditions: drug-treated vs control
Experimental: as §1, §2, §3, §4
The media represents a major factor in the experimental system, in that it contributes many peaks to mass spectra. This can be accounted for in a data dependent manner to select for mass feature bins, which are present at significant levels above the media. Mass feature bins present solely in the presence of cells (not detected in media) or with average abundance levels different than uncultured media were considered to be secreted, excreted, consumed, or identified metabolites.
The exact mass of the metabolite must be within 10 ppm of the known mass of the compound. 2) The retention time of the metabolite detected in the cell media must be within + or −30 seconds of a reference standard on which MS data had been acquired under the same conditions. The reference standards were dissolved in mTeSR media and prepared in exactly the same manner (described above) as the samples from the cells, including the addition of acetonitrile, Centricon centrifugal filtration, drying then dissolution in formic acid prior to LC-MS analysis. 3) The MS-MS fragmentation spectra of the metabolite detected in the cell media must be a reasonable match with that of the reference standard, including abundances and m/z values of the fragment ions. If published MS-MS spectra are available, the MS-MS spectra must also be a reasonable match.

[5] = tested on: WA09 human embryonic stem (hES) cells
Excerpt: as §5

[6] = blinded drugs; cited from earlier work
[7] = tested on: mES cells; conditions: Nieden et al. 2001; cited from earlier work
[8] = high dose (H = 10x circulating dose)
[9] = low dose (L = 0.1x circulating dose)

Compound: NC(=O)N1c2ccccc2C=Cc2ccccc21 [Carbamazepine]
- Predicted teratogenicity (random forest statistical model) [1]: Ter
- % Non (PLS-DA class probability non-teratogen) [2, 8]: 0.37
- % Ter (PLS-DA class probability teratogen) [2, 8]: 0.63
- Confidence (difference between class probabilities) [2, 8]: 0.26
- Prediction [2, 8]: Ter
- % Non (PLS-DA class probability non-teratogen) [2, 9]: 0.5
- % Ter (PLS-DA class probability teratogen) [2, 9]: 0.5
- Confidence (difference between class probabilities) [2, 9]: 0
- Prediction [2, 9]: Non
- Arg/ADMA Prediction [3]: Ter
- Arg fold change/ADMA fold change [3]: 1.12
- Abundance of succinic acid [4]: significant down regulation

Compound: O=P1(N(CCCl)CCCl)NCCCO1 (stereo not shown) [Cyclophosphamide]
- Predicted teratogenicity (random forest statistical model) [1]: Ter
- % Non (PLS-DA class probability non-teratogen) [2, 8]: 0.45
- % Ter (PLS-DA class probability teratogen) [2, 8]: 0.55
- Confidence (difference between class probabilities) [2, 8]: 0.1
- Prediction [2, 8]: Ter
- % Non (PLS-DA class probability non-teratogen) [2, 9]: 0.41
- % Ter (PLS-DA class probability teratogen) [2, 9]: 0.59
- Confidence (difference between class probabilities) [2, 9]: 0.18
- Prediction [2, 9]: Ter
- Arg fold change/ADMA fold change [3]: 1.56
- Arg/ADMA Prediction ([3]; from fold change ratio): Ter
- Abundance of succinic acid [4]: significant down regulation

Compound: Nc1ccn([C@@H]2O[C@H](CO)[C@@H](O)[C@@H]2O)c(=O)n1 [CytosineArabinoside]
- Prediction [5]: Ter

Compound: CN(Cc1cnc2nc(N)nc(N)c2n1)c1ccc(C(=O)N[C@@H](CCC(=O)O)C(=O)O)cc1 [Methotrexate]
- % Non (PLS-DA class probability non-teratogen) [2, 8]: 0.42
- % Ter (PLS-DA class probability teratogen) [2, 8]: 0.58
- Confidence (difference between class probabilities) [2, 8]: 0.16
- Prediction [2, 8]: Ter
- % Non (PLS-DA class probability non-teratogen) [2, 9]: 0.48
- % Ter (PLS-DA class probability teratogen) [2, 9]: 0.52
- Confidence (difference between class probabilities) [2, 9]: 0.04
- Prediction [2, 9]: Ter
- Arg/ADMA Prediction [3]: Ter
- Arg fold change/ADMA fold change [3]: 2.54
- Abundance of succinic acid [4]: significant down regulation

Compound: CC1=C(/C=C/C(C)=C/C=C/C(C)=C/CO)C(C)(C)CCC1 [Retinol]
- Predicted teratogenicity (random forest statistical model) [1]: Non
- Actual teratogenicity [6]: Non
- % Non (PLS-DA class probability non-teratogen) [2, 8]: 0.65
- % Ter (PLS-DA class probability teratogen) [2, 8]: 0.35
- Confidence (difference between class probabilities) [2, 8]: 0.3
- Prediction [2, 8]: Non
- % Non (PLS-DA class probability non-teratogen) [2, 9]: 0.75
- % Ter (PLS-DA class probability teratogen) [2, 9]: 0.25
- Confidence (difference between class probabilities) [2, 9]: 0.5
- Prediction [2, 9]: Non
- Arg fold change/ADMA fold change [3]: 1.03

Compound: O=C1CCC(N2C(=O)c3ccccc3C2=O)C(=O)N1 (stereo not shown) [Thalidomide]
- Correct classification as a teratogen by the EST [7]: does not
- Classification by the hSLC based assay [1]: teratogen
- % Non (PLS-DA class probability non-teratogen) [2, 8]: 0.3
- % Ter (PLS-DA class probability teratogen) [2, 8]: 0.7
- Confidence (difference between class probabilities) [2, 8]: 0.4
- Prediction [2, 8]: Ter
- % Non (PLS-DA class probability non-teratogen) [2, 9]: 0.65
- % Ter (PLS-DA class probability teratogen) [2, 9]: 0.35
- Confidence (difference between class probabilities) [2, 9]: 0.3
- Prediction [2, 9]: Non
- Arg/ADMA Prediction [3]: Ter
- Arg fold change/ADMA fold change [3]: 0.85

Compound: Cc1ncc(C[n+]2csc(CCO)c2C)c(N)n1 [Thiamine]
- Predicted teratogenicity (random forest statistical model) [1]: Non
- Actual teratogenicity [6]: Non
- % Non (PLS-DA class probability non-teratogen) [2, 8]: 0.78
- % Ter (PLS-DA class probability teratogen) [2, 8]: 0.22
- Confidence (difference between class probabilities) [2, 8]: 0.56
- Prediction [2, 8]: Non
- % Non (PLS-DA class probability non-teratogen) [2, 9]: 0.82
- % Ter (PLS-DA class probability teratogen) [2, 9]: 0.18
- Confidence (difference between class probabilities) [2, 9]: 0.64
- Prediction [2, 9]: Non
- Arg fold change/ADMA fold change [3]: 1.00
